Literature values in US12239660B2, “Therapeutic composition and methods” (Viscera Labs, Inc., priority 2018, dated 2025).

Conditions: in vivo, po

drug released in the small intestine: 12%
Structure (SMILES): O=C(O)c1cc(/N=N/c2ccc(S(=O)(=O)Nc3ccccn3)cc2)ccc1O [sulfasalazin]
